Laboratory results published in patent US9353146B2, “Acylation derivatives of paridis saponins I, preparation method therefor and application thereof” (HANGZHOU BENSHENG PHARMACEUTICAL CO., LTD., priority 2012, dated 2016).
Converted amounts (≈) assume the structure as drawn.

Experiments:
[1] = tested on: K562/adr (drug-resistant, chronic myeloid leukemia, CML); assay: Anti-leukemia cell growth inhibition, MTT method, 72 h; assay type: cell-based, human; conditions: for IC50 / IC90: Homo sapiens, K562/Adr
Description: (§1) Leukemia cell lines: leukemia cell lines: K562/adr (drug-resistant, chronic myeloid leukemia, CML), NB4 (acute promyelocytic leukemia, AML), and Kasumi-1 (acute myeloid leukemia M2 type, AML-M2), all of which were donated by Cancer Research Institute of Zhejiang University, China.
(§2) 6000 well-growing leukemia cells were obtained and inoculated into wells of a 96-well cell culture plate. The culture medium used was the 1640 cell culture medium containing 10% fetal bovine serum. After adding the Polyphyllin I derivatives with 5′-acylated arabinofuranosyl of different concentrations and mixing uniformly, the plate was placed in a carbon dioxide cell incubator (5% CO2) at 37° C. and incubated for 72 hours. Then the viable cell concentration was determined by the MTT method. In this experiment, the cell viability in control group (not treated with any compound) is set as 100%. On such basis, the cell viability (%) after treatment of the compound and the 50% inhibiting concentration for the leukemia cell growth at 72 hours (IC50 value and IC90 value of 72 hours) were calculated.

[2] = tested on: NB4 (acute promyelocytic leukemia, AML); assay: as above; assay type: cell-based, human; conditions: for IC50 / IC90: Homo sapiens
Description: as §1, §2

A549 (human lung cancer) = assay: Anti-human solid tumor cell growth inhibition, MTT method, 72 h; assay type: cell-based; conditions: for IC50 / IC90: Homo sapiens, A549
Description: (§3) Human solid tumor cell lines: A549 (human lung cancer) and SK-OV-3 (ovarian cancer cell), all of which are purchased from China Center For Type Culture Collection; RKO (human colon adenocarcinoma cell) and MG-63 (osteosarcoma), all of which are purchased from Fuxiang Bio-tech Co. Ltd., Shanghai, China; Hela (human cervical cancer cell), donated by Cancer Research Institute of Zhejiang University, China.
(§4) 4000 well-growing human solid tumor cells were obtained and inoculated into wells of a 96-well cell culture plate. The culture medium used was DMEM High Glucose cell culture medium containing 10% fetal bovine serum. The plate is placed in a carbon dioxide cell incubator (5% CO2) at 37° C. and incubated for 24 hours. After adding the Polyphyllin I derivatives with 5′-acylated arabinofuranosyl group of different concentrations and mixing uniformly, the plate was continued to be placed in a carbon dioxide cell incubator (5% CO2) at 37° C. and incubated for 72 hours. Then the viable cell concentration was determined by the MTT method and the cell viability (%) after drug treatment was calculated. In this experiment, the cell viability of control group (not treated with any compound) is set as 100%.

[3] = tested on: Hela (human cervical cancer cell); assay: as above; assay type: cell-based; conditions: for IC50 / IC90: Homo sapiens, HeLa
Description: as §3, §4

[4] = tested on: RKO (human colon adenocarcinoma cell); assay: as above; assay type: cell-based; conditions: for IC90: Homo sapiens
Description: as §3, §4

[5] = tested on: Kasumi-1 (acute myeloid leukemia M2 type, AML-M2); assay: Anti-leukemia cell growth inhibition, MTT method, 72 h; assay type: cell-based, human; conditions: for IC50: Homo sapiens, Kasumi 1
Description: as §1, §2

MG-63 (osteosarcoma) = assay: Anti-human solid tumor cell growth inhibition, MTT method, 72 h; assay type: cell-based; conditions: for IC50 / IC90: Homo sapiens, MG-63
Description: as §3, §4

[6] = tested on: SK-OV-3 (ovarian cancer cell); assay: as above; assay type: cell-based
Description: as §3, §4

[7] = tested on: nasopharyngeal carcinoma CNE-2 cell line; conditions: HUA Yonghong et al. 2011; cited from earlier work
[8] = tested on: nasopharyngeal carcinoma CNE-2 cell line; conditions: DDP as positive control; HUA Yonghong et al. 2011; cited from earlier work
[9] = tested on: human hepatocellular carcinoma SMMC-7721 cell line; conditions: in vitro; XIAO Meifang et al. 2011; cited from earlier work

Row | Structure (SMILES) | IC50 [1] | IC90 [1] | IC50 [2] | IC90 [2] | IC50 (A549 (human lung cancer)) | IC90 (A549 (human lung cancer)) | IC50 [3] | IC90 [3] | IC90 [4] | other results
1 | C[C@@H]1CC[C@@]2(OC1)OC1CC3C4CC=C5C[C@@H](O[C@@H]6O[C@H](CO)[C@@H](OC7O[C@@H](COC(=O)c8ccncc8)[C@H](O)[C@H]7O)[C@H](O)[C@H]6OC6O[C@@H](C)[C@H](O)[C@@H](O)[C@H]6O)CC[C@]5(C)C4CC[C@]3(C)C1[C@@H]2C (stereo partly drawn) [BS-PP-04] | 0.38 µg/mL (≈ 0.396 µM) | 2.33 µg/mL (≈ 2.43 µM) | 0.91 µg/mL (≈ 0.948 µM) | 3.85 µg/mL (≈ 4.01 µM) | 1 µg/mL (≈ 1.04 µM) | 14.5 µg/mL (≈ 15.1 µM) | 0.48 µg/mL (≈ 0.5 µM) | 3.23 µg/mL (≈ 3.36 µM) | – | –
2 | C[C@@H]1CC[C@@]2(OC1)OC1CC3C4CC=C5C[C@@H](O[C@@H]6O[C@H](CO)[C@@H](OC7O[C@@H](COC(=O)c8ccc(C(F)(F)F)cc8)[C@H](O)[C@H]7O)[C@H](O)[C@H]6OC6O[C@@H](C)[C@H](O)[C@@H](O)[C@H]6O)CC[C@]5(C)C4CC[C@]3(C)C1[C@@H]2C (stereo partly drawn) [BS-PP-05] | – | – | – | – | 1.8 µg/mL (≈ 1.75 µM) | 12 µg/mL (≈ 11.7 µM) | – | – | 6.82 µg/mL (≈ 6.64 µM) | –
3 | C[C@@H]1CC[C@@]2(OC1)OC1CC3C4CC=C5C[C@@H](O[C@@H]6O[C@H](CO)[C@@H](OC7O[C@@H](COC(=O)c8ccco8)[C@H](O)[C@H]7O)[C@H](O)[C@H]6OC6O[C@@H](C)[C@H](O)[C@@H](O)[C@H]6O)CC[C@]5(C)C4CC[C@]3(C)C1[C@@H]2C (stereo partly drawn) [BS-PP-10] | 0.45 µg/mL (≈ 0.474 µM) | 2.23 µg/mL (≈ 2.35 µM) | 0.83 µg/mL (≈ 0.875 µM) | 2.82 µg/mL (≈ 2.97 µM) | 0.86 µg/mL (≈ 0.906 µM) | 10.2 µg/mL (≈ 10.8 µM) | 0.45 µg/mL (≈ 0.474 µM) | 2.01 µg/mL (≈ 2.12 µM) | 5.46 µg/mL (≈ 5.75 µM) | IC50 [5]: 0.78 µg/mL (≈ 0.822 µM); IC50 (MG-63 (osteosarcoma)): 0.33 µg/mL (≈ 0.348 µM); IC90 (MG-63 (osteosarcoma)): 0.85 µg/mL (≈ 0.896 µM); IC50 ([6]; Homo sapiens, SK-OV-3): 0.65 µg/mL (≈ 0.685 µM); IC90 ([6]; Homo sapiens, SK-OV-3): 0.97 µg/mL (≈ 1.02 µM)
4 | C[C@@H]1CC[C@@]2(OC1)O[C@H]1C[C@H]3[C@@H]4CC=C5C[C@@H](O[C@@H]6O[C@H](CO)[C@@H](O[C@@H]7O[C@@H](CO)[C@H](O)[C@H]7O)[C@H](O)[C@H]6O[C@@H]6O[C@@H](C)[C@H](O)[C@@H](O)[C@H]6O)CC[C@]5(C)[C@H]4CC[C@]3(C)[C@H]1[C@@H]2C [PP, 4-O-arabinofuranosyl-2-O-rhamnopyranosyl-β-D-glucopyranosyldioscin, reference compound] | – | – | – | – | – | – | – | – | – | K562/adr IC50 [1]: 0.87 µg/mL; K562/adr IC90 [1]: 2.98 µg/mL; Kasumi-1 IC50 [5]: 0.92 µg/mL; NB4 IC50 [2]: 1.84 µg/mL; NB4 IC90 [2]: 6.75 µg/mL; A549 IC50 (A549 (human lung cancer)): 1.86 µg/mL; A549 IC90 (A549 (human lung cancer)): 14.63 µg/mL; Hela IC50 [3]: 0.77 µg/mL; Hela IC90 [3]: 4.86 µg/mL; MG-63 IC50 (MG-63 (osteosarcoma)): 0.37 µg/mL; MG-63 IC90 (MG-63 (osteosarcoma)): 0.97 µg/mL; RKO IC90 [4]: 8.48 µg/mL; SK-OV-3 IC50 [6]: 0.70 µg/mL; SK-OV-3 IC90 [6]: 1.70 µg/mL; effects on the proliferation of CNE-2 cells [7]: time- and dose-dependent inhibitory effects; radiosensitizing effects on CNE-2 cell line [8]: concentration-dependent radiosensitizing effects; effect on proliferation of SMMC-7721 cells [9]: inhibit the proliferation of hepatocellular carcinoma SMMC-7721 cells in a time- and concentration-dependent manner
5 | C[C@@H]1CC[C@@]2(OC1)OC1CC3C4CC=C5C[C@@H](O[C@@H]6O[C@H](CO)[C@@H](OC7O[C@@H](COC(=O)c8cccs8)[C@H](O)[C@H]7O)[C@H](O)[C@H]6OC6O[C@@H](C)[C@H](O)[C@@H](O)[C@H]6O)CC[C@]5(C)C4CC[C@]3(C)C1[C@@H]2C (stereo partly drawn) [BS-PP-09] | – | – | 1.11 µg/mL (≈ 1.15 µM) | 3.92 µg/mL (≈ 4.06 µM) | 1.6 µg/mL (≈ 1.66 µM) | 13 µg/mL (≈ 13.5 µM) | 0.55 µg/mL (≈ 0.57 µM) | 2 µg/mL (≈ 2.07 µM) | 5.25 µg/mL (≈ 5.44 µM) | –
6 | C[C@@H]1CC[C@@]2(OC1)OC1CC3C4CC=C5C[C@@H](O[C@@H]6O[C@H](CO)[C@@H](OC7O[C@@H](COC(=O)c8ccc(F)cc8)[C@H](O)[C@H]7O)[C@H](O)[C@H]6OC6O[C@@H](C)[C@H](O)[C@@H](O)[C@H]6O)CC[C@]5(C)C4CC[C@]3(C)C1[C@@H]2C (stereo partly drawn) [BS-PP-06] | 0.73 µg/mL (≈ 0.747 µM) | 2.66 µg/mL (≈ 2.72 µM) | 0.79 µg/mL (≈ 0.808 µM) | 4.09 µg/mL (≈ 4.19 µM) | – | – | – | – | 5.13 µg/mL (≈ 5.25 µM) | –
7 | C[C@@H]1CC[C@@]2(OC1)OC1CC3C4CC=C5C[C@@H](O[C@@H]6O[C@H](CO)[C@@H](OC7O[C@@H](COC(=O)c8ccc(F)cc8F)[C@H](O)[C@H]7O)[C@H](O)[C@H]6OC6O[C@@H](C)[C@H](O)[C@@H](O)[C@H]6O)CC[C@]5(C)C4CC[C@]3(C)C1[C@@H]2C (stereo partly drawn) [BS-PP-08] | 0.49 µg/mL (≈ 0.492 µM) | 2.5 µg/mL (≈ 2.51 µM) | 0.85 µg/mL (≈ 0.854 µM) | 1.9 µg/mL (≈ 1.91 µM) | 1.19 µg/mL (≈ 1.2 µM) | 14.1 µg/mL (≈ 14.1 µM) | 0.61 µg/mL (≈ 0.613 µM) | 3.89 µg/mL (≈ 3.91 µM) | 4.93 µg/mL (≈ 4.95 µM) | –
8 | C[C@@H]1CC[C@@]2(OC1)OC1CC3C4CC=C5C[C@@H](O[C@@H]6O[C@H](CO)[C@@H](OC7O[C@@H](COC(=O)c8ccc(F)cc8Cl)[C@H](O)[C@H]7O)[C@H](O)[C@H]6OC6O[C@@H](C)[C@H](O)[C@@H](O)[C@H]6O)CC[C@]5(C)C4CC[C@]3(C)C1[C@@H]2C (stereo partly drawn) [BS-PP-15] | 0.76 µg/mL (≈ 0.751 µM) | 2 µg/mL (≈ 1.98 µM) | 1.19 µg/mL (≈ 1.18 µM) | 3.4 µg/mL (≈ 3.36 µM) | 1.8 µg/mL (≈ 1.78 µM) | 9.9 µg/mL (≈ 9.79 µM) | 0.68 µg/mL (≈ 0.672 µM) | 3.51 µg/mL (≈ 3.47 µM) | 5.13 µg/mL (≈ 5.07 µM) | –
9 | C[C@@H]1CC[C@@]2(OC1)OC1CC3C4CC=C5C[C@@H](O[C@@H]6O[C@H](CO)[C@@H](OC7O[C@@H](COC(=O)C8CC8)[C@H](O)[C@H]7O)[C@H](O)[C@H]6OC6O[C@@H](C)[C@H](O)[C@@H](O)[C@H]6O)CC[C@]5(C)C4CC[C@]3(C)C1[C@@H]2C (stereo partly drawn) [BS-PP-12] | 0.42 µg/mL (≈ 0.455 µM) | 2.14 µg/mL (≈ 2.32 µM) | 1.22 µg/mL (≈ 1.32 µM) | 3.96 µg/mL (≈ 4.29 µM) | 0.86 µg/mL (≈ 0.932 µM) | 7.38 µg/mL (≈ 7.99 µM) | 0.5 µg/mL (≈ 0.542 µM) | 3.19 µg/mL (≈ 3.46 µM) | 6.08 µg/mL (≈ 6.59 µM) | IC50 [5]: 0.86 µg/mL (≈ 0.932 µM)
10 | CC(=O)OC[C@@H]1OC(O[C@H]2[C@H](O)[C@@H](OC3O[C@@H](C)[C@H](O)[C@@H](O)[C@H]3O)[C@H](O[C@H]3CC[C@@]4(C)C(=CCC5C6CC7O[C@]8(CC[C@@H](C)CO8)[C@@H](C)C7[C@@]6(C)CCC54)C3)O[C@@H]2CO)[C@H](O)[C@H]1O (stereo partly drawn) [BS-PP-11] | 0.42 µg/mL (≈ 0.468 µM) | 2.32 µg/mL (≈ 2.59 µM) | 0.94 µg/mL (≈ 1.05 µM) | 2.48 µg/mL (≈ 2.76 µM) | 0.83 µg/mL (≈ 0.925 µM) | 10.2 µg/mL (≈ 11.4 µM) | 0.62 µg/mL (≈ 0.691 µM) | 2.57 µg/mL (≈ 2.86 µM) | – | IC50 (MG-63 (osteosarcoma)): 0.33 µg/mL (≈ 0.368 µM); IC90 (MG-63 (osteosarcoma)): 0.76 µg/mL (≈ 0.847 µM)
11 | COc1ccc(C(=O)OC[C@@H]2OC(O[C@H]3[C@H](O)[C@@H](OC4O[C@@H](C)[C@H](O)[C@@H](O)[C@H]4O)[C@H](O[C@H]4CC[C@@]5(C)C(=CCC6C7CC8O[C@]9(CC[C@@H](C)CO9)[C@@H](C)C8[C@@]7(C)CCC65)C4)O[C@@H]3CO)[C@H](O)[C@H]2O)cc1 (stereo partly drawn) [BS-PP-03] | 0.69 µg/mL (≈ 0.698 µM) | – | 1.13 µg/mL (≈ 1.14 µM) | 1.96 µg/mL (≈ 1.98 µM) | – | – | – | – | 4.5 µg/mL (≈ 4.55 µM) | –
